Source: patent US9056111B1, “Selective efflux inhibitors and related pharmaceutical compositions and methods of treatment” (STC.UNM, priority 2011, dated 2015)
Where two headings read alike, the source gives them in different places.

Columns and labels:
[1] = target: ABCB1 (Homo sapiens, UniProt P08183); test: JC-1 efflux inhibition dose response, flow cytometry, Jurkat-DNR cells; conditions: for IC50: Jurkat-DNR cells over-expressing ABCB1, averages of two to four replicates; for efflux inhibition activity ABCB1: JC-1 efflux, Jurkat-DNR
Method: (§1) The HyperCyt® high throughput flow cytometry platform (IntelliCyt™, Albuquerque, N. Mex.) was used to sequentially sample cells from 384-well microplates (2 μL/sample) for flow cytometer presentation at a rate of 40 samples per minute.^62-63 Flow cytometric analysis was performed on a CyAn™ flow cytometer (Beckman-Coulter, Fullerton, Calif.). The resulting time-gated data files were analyzed with HyperView® software to determine compound activity in each well. Inhibition response curves were fitted by Prism® software (GraphPad Software, Inc., San Diego, Calif.) using nonlinear least-squares regression in a sigmoidal dose response model with variable slope, also known as the four-parameter logistic equation. This type of time-gated flow cytometric data analysis was described in detail for a previous ABC transporter screen from our group.^56
The assay provider's ABCB1 over-expressing Jurkat-DNR cell line is used for confirmatory follow up instead of the CCRF-Adr cells. Each cell line (Jurkat-DNR and Ig-MXP3) is run separately against all compounds (no differential cell staining) in dose response. The assay is conducted in 384-well format in a total volume of 15.1 μL. Cells and reagents are added sequentially as follows: 1) PBS buffer (5 μL/well); 2) test compound (100 nL/well); 3) drug-resistant cells (10 μL/well) pre-stained with the JC-1 substrate at 1 μM. Final in-well concentrations of test compound range from 50 μM to 69 nM over an 18 point dose response and the cell concentration is 1×10^6 cells/mL. Nicardipine (50 μM) is added to each plate as a pan-inhibition positive control. The plate is rotated end-over-end at 4 RPM and 25° C. for 30 minutes and then cell samples are analyzed and flow cytometric data of light scatter and fluorescence emission at 530+/−20 nm (488 nm excitation, FL1) are collected.
(§2) Each cell line (Jurkat-DNR and Ig-MXP3) was run separately against all compounds (no differential cell staining) in dose-response. The protocol differed from the single point screen as describe here. Cells and reagents were added sequentially as follows: 1) PBS buffer (5 μL per well); 2) test compound (100 nL per well); 3) drug-resistant cells (10 μL, per well) pre-exposed to the JC-1 substrate at 1 μM just prior to the well addition. Final in-well concentrations of test compound ranged from 50 μM to 69 nM over an 18 point dose-response and the cell concentration was 1×10^6 cells mL^−1.

[2] = target: T1, ABCB1 / ABCG2 (Homo sapiens, UniProt Q9UNQ0); test: JC-1 efflux inhibition dose response, flow cytometry, Ig-MXP3 cells; conditions: human, probe JC-1 (1 µM), ~Fold G2 Selective (B1/G2), quotient of average ABCB1 IC50 and average ABCG2 IC50, efflux assay
T1 sequence (Q9UNQ0 1-655): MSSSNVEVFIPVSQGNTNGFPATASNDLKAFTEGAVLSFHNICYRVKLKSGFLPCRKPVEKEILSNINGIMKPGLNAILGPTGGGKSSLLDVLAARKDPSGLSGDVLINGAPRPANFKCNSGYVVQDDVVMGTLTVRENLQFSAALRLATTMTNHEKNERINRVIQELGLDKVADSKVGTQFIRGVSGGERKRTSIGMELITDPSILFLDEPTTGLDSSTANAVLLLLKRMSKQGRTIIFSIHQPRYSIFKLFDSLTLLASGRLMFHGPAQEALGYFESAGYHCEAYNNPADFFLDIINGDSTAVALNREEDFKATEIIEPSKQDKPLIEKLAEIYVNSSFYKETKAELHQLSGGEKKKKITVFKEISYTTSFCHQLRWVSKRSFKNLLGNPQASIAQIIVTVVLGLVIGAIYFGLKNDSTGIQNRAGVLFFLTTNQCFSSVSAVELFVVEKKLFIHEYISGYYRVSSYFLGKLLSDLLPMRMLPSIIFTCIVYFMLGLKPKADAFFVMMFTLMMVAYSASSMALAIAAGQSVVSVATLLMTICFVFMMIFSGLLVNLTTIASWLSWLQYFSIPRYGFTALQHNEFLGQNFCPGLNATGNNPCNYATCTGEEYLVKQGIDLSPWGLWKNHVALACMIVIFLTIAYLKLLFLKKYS
Method: as §1
(§3) The assay provider's ABCB1 over-expressing Jurkat-DNR cell line is used for confirmatory follow up instead of the CCRF-Adr cells. Each cell line (Jurkat-DNR and Ig-MXP3) is run separately against all compounds (no differential cell staining) in dose response. The assay is conducted in 384-well format in a total volume of 15.1 μL. Cells and reagents are added sequentially as follows: 1) PBS buffer (5 μL/well); 2) test compound (100 nL/well); 3) drug-resistant cells (10 μL/well) pre-stained with the JC-1 substrate at 1 μM. […] Nicardipine (50 μM) is added to each plate as a pan-inhibition positive control.
as §2, with “addition.” for “addition. Final in-well concentrations of test compound ranged from 50 μM to 69 nM over an 18 point dose-response and the cell concentration was 1×10^6 cells mL^−1.”

[3] = target: T2, ABCG2 (Homo sapiens, UniProt Q9UNQ0); test: as above; conditions: for ~Fold G2 Selective (B1/G2): quotient of average ABCB1 IC50 and average ABCG2 IC50, efflux assay
T2 sequence (Q9UNQ0 1-655): T1 sequence (Q9UNQ0 1-655)
Method: as §1, §3
as §2, with “addition.” for “addition. Final in-well concentrations of test compound ranged from 50 μM to 69 nM over an 18 point dose-response and the cell concentration was 1×10^6 cells mL^−1.”

[4] = IC50 ABCB1 (efflux inhibition of JC-1 substrate)
[5] = read-out: IC50 ABCB1 (efflux inhibition of JC-1 substrate)
[6] = read-out: IC50 ABCG2 (efflux inhibition of JC-1 substrate), Ig-MXP3 cells over-expressing ABCG2, averages of two to four replicates

ABCB1, sequence (P08183 whole entry): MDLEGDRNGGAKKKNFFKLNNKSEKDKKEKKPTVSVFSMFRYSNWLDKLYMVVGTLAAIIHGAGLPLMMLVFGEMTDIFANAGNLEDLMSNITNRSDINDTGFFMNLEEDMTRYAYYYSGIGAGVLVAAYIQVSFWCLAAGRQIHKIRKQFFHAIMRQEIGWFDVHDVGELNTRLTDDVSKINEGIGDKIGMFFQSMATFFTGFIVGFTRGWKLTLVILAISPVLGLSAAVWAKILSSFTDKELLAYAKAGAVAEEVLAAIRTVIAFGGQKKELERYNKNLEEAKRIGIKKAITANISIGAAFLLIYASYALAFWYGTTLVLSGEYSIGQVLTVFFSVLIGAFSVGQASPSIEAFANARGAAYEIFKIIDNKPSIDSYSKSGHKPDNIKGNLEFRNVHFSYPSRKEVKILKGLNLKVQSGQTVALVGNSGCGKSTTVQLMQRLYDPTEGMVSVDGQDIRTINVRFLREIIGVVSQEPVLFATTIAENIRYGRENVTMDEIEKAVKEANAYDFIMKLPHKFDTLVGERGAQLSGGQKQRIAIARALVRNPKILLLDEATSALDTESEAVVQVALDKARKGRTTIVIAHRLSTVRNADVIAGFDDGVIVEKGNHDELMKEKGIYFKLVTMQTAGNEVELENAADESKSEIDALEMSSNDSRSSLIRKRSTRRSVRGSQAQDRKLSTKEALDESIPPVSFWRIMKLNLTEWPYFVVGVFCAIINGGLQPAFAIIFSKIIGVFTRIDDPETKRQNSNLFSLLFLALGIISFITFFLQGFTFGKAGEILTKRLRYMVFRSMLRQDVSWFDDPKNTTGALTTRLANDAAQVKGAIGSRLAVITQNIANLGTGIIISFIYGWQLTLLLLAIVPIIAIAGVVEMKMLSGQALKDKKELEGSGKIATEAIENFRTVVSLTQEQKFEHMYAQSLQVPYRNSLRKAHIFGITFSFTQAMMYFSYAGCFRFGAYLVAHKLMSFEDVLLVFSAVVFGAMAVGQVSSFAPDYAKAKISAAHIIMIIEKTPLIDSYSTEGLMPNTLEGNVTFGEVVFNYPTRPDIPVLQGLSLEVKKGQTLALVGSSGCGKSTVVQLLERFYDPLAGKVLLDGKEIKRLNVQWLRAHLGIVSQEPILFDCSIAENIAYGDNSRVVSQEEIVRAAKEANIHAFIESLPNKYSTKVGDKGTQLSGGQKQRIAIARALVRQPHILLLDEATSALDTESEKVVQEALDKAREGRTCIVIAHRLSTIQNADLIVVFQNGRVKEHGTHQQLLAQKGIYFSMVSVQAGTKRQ

| IC50 [1, 4] | IC50 [3] | ~Fold G2 Selective (B1/G2) [3] | IC50 [1, 5] | IC50 [3, 6] | Compound | selectivity ratio at 30 min [2] | efflux inhibition activity ABCB1 [1] | efflux inhibition activity ABCG2 ([3]; JC-1 efflux, Ig-MXP3) |
| --- | --- | --- | --- | --- | --- | --- | --- | --- |
| 7.07 µM | 1.68 ± 0.61 µM |  |  |  | O=C(c1ccoc1)N1CCN(c2cc(-c3cccc(F)c3)nc3cc(-c4ccccc4)nn23)CC1 [Compound 47] | 4.2 |  |  |
| 3.97 ± 0.8 µM | 1.4 ± 0.32 µM |  |  |  | O=C(c1ccsc1)N1CCN(c2cc(-c3ccccc3)nc3cc(-c4cccc(Cl)c4)nn23)CC1 [Compound 12] | 2.8 |  |  |
| 4.12 ± 1.05 µM | 1.71 ± 0.58 µM |  |  |  | COc1ccc(-c2cc(N3CCN(C(=O)c4ccoc4)CC3)n3nc(-c4cccc(Cl)c4)cc3n2)cc1 [Compound 29] | 2.4 |  |  |
| 3.46 µM | 1.64 ± 0.03 µM |  |  |  | O=C(c1ccoc1)N1CCN(c2cc(-c3cccs3)nc3cc(-c4ccccc4)nn23)CC1 [Compound 64] | 2.1 |  |  |
| 3.42 ± 1.64 µM | 1.45 ± 0.59 µM |  |  |  | O=C(c1ccccc1)N1CCN(c2cc(-c3ccccc3)nc3cc(-c4cccc(Cl)c4)nn23)CC1 [Compound 13] | 2.4 |  |  |
| 3.99 ± 2.31 µM | 2.03 ± 0.11 µM |  |  |  | O=C(c1ccccc1)N1CCN(c2cc(-c3ccccc3)nc3cc(-c4ccc(F)cc4)nn23)CC1 [Compound 43] | 2 |  |  |
| 5.62 µM | 11.5 µM |  |  |  | CC(C)(C)c1cc(N2CCN(C(=O)c3ccoc3)CC2)n2nc(-c3ccccc3)cc2n1 [Compound 49] | 0.5 |  |  |
| 2.17 ± 1.02 µM | 1.14 ± 0.54 µM |  |  |  | COc1cccc(-c2cc(N3CCN(C(=O)c4ccoc4)CC3)n3nc(-c4cccc(Cl)c4)cc3n2)c1 [Compound 28] | 1.9 |  |  |
| 15.8 ± 3.33 µM | 7.27 ± 3.01 µM |  |  |  | Cc1cc(N2CCN(C(=O)c3ccoc3)CC2)n2nc(-c3ccccc3)cc2n1 [Compound 63] | 2.2 |  |  |
| 4.34 ± 2.09 µM | 2.27 ± 0.06 µM |  |  |  | O=C(c1ccccc1)N1CCN(c2cc(-c3ccccc3)nc3cc(-c4cccc(F)c4)nn23)CC1 [Compound 42] | 1.9 |  |  |
| 3.27 ± 1.43 µM | 4.65 ± 3.96 µM |  |  |  | CC1CN(C(=O)c2ccoc2)CCN1c1cc(-c2ccco2)nc2cc(-c3ccccc3)nn12 (stereo not shown) [Compound 86] | 0.7 |  |  |
|  |  | 3.6 fold | 4.93 ± 1.76 µM | 1.38 ± 1.04 µM | O=C(c1ccsc1)N1CCN(c2cc(-c3ccco3)nc3cc(-c4ccccc4)nn23)CC1 [Compound 68] |  |  |  |
|  |  | 5.1 fold | 11.9 ± 7.4 µM | 2.33 ± 2.23 µM | Cc1occc1C(=O)N1CCN(c2cc(-c3ccco3)nc3cc(-c4ccccc4)nn23)CC1 [Compound 70] |  |  |  |

More lines, now with the values behind:

| Compound | IC50 [1, 4] | IC50 [3] | ~Fold G2 Selective (B1/G2) [3] | IC50 [1, 5] | IC50 [3, 6] | selectivity ratio at 30 min [2] | efflux inhibition activity ABCB1 [1] | efflux inhibition activity ABCG2 ([3]; JC-1 efflux, Ig-MXP3) |
| --- | --- | --- | --- | --- | --- | --- | --- | --- |
| COc1ccccc1C(=O)N1CCN(c2cc(-c3ccccc3)nc3cc(-c4cccc(Cl)c4)nn23)CC1 [Compound 14] | 4.73 ± 1.78 µM | 4.92 ± 4.28 µM |  |  |  | 1 |  |  |
| CNCCCN(C)c1cc(-c2ccco2)nc2cc(-c3ccccc3)nn12 [Compound 79] | 11.9 ± 8.94 µM | 25.5 ± 13.4 µM |  |  |  | 0.5 |  |  |
| c1ccc(-c2cc3nc(-c4ccco4)cc(N4CCNCC4)n3n2)cc1 [Compound 77] | 23.6 ± 12.1 µM | 5.71 ± 1.8 µM |  |  |  | 4.1 |  |  |
| O=C(OCc1ccccc1)N1CCN(c2cc(-c3ccco3)nc3cc(-c4ccccc4)nn23)CC1 [Compound 76] | > 50 µM | 2.71 ± 1.95 µM | 18.5 fold |  |  | ~19 | completely lost |  |
| CN(CCCN(C)c1cc(-c2ccco2)nc2cc(-c3ccccc3)nn12)C(=O)c1ccoc1 [Compound 81] | 13.1 ± 6.27 µM | 5.43 ± 4.11 µM |  |  |  | 2.4 |  |  |
| COc1ccc2c3c([nH]c2c1)[C@H](C=C(C)C)N1C(=O)[C@@H]2CCCN2C(=O)[C@@H]1C3 [Compound 3, reference compound] |  |  |  |  |  |  | no activity | no activity |
| O=C(C1CCCCC1)N1CCN(c2cc(-c3ccccc3)nc3cc(-c4cccc(Cl)c4)nn23)CC1 [Compound 22] | 3.31 ± 1.86 µM | 2.67 ± 1.26 µM |  |  |  | 1.2 |  |  |
| COc1ccc(C(=O)N2CCN(c3cc(-c4ccccc4)nc4cc(-c5cccc(Cl)c5)nn34)CC2)cc1 [Compound 16] | 2.89 ± 0.55 µM | 2.82 ± 1.91 µM |  |  |  | 1 |  |  |
| O=C(c1cccc(Cl)c1)N1CCN(c2cc(-c3ccccc3)nc3cc(-c4cccc(Cl)c4)nn23)CC1 [Compound 18] | 4.19 ± 1.88 µM | 2.95 ± 0.57 µM |  |  |  | 1.4 |  |  |
| O=S(=O)(c1ccccc1)N1CCN(c2cc(-c3ccccc3)nc3cc(-c4cccc(Cl)c4)nn23)CC1 [Compound 25] | > 50 µM | > 50 µM |  |  |  |  |  |  |
| Cc1cc(C(=O)N2CCN(c3cc(-c4ccco4)nc4cc(-c5ccccc5)nn34)CC2)c(C)o1 [Compound 72] |  |  | 3.6 fold | 12 ± 6.11 µM | 3.37 ± 1.19 µM |  |  |  |
| O=C1CN(c2cc(-c3ccco3)nc3cc(-c4ccccc4)nn23)CCN1c1ccccc1 [Compound 83] | 4.06 ± 1.78 µM | 1.64 ± 0.52 µM |  |  |  | 2.5 |  |  |
| O=C(c1coc2ccccc12)N1CCN(c2cc(-c3ccco3)nc3cc(-c4ccccc4)nn23)CC1 [Compound 73] |  |  | 3.1 fold | 8.83 ± 6.63 µM | 2.84 ± 0.96 µM |  |  |  |
| CN(C)CCN(C)c1cc(-c2ccco2)nc2cc(-c3ccccc3)nn12 [Compound 78] | > 50 µM | 8.88 ± 2.82 µM |  |  |  |  |  |  |
| COc1ccccc1-c1cc2nc(-c3ccccc3)cc(N3CCN(C(=O)c4ccccc4)CC3)n2n1 [Compound 41] |  |  | 3.0 fold | 2.31 ± 0.79 µM | 0.76 ± 0.06 µM |  |  |  |
| O=C(c1ccc(Cl)cc1)N1CCN(c2cc(-c3ccccc3)nc3cc(-c4cccc(Cl)c4)nn23)CC1 [Compound 19] | 2.36 ± 0.7 µM | 2.67 ± 0.85 µM |  |  |  | 0.9 |  |  |
| O=C(Nc1ccccc1)C1CCN(c2cc(-c3ccco3)nc3cc(-c4ccccc4)nn23)CC1 [Compound 84] | > 50 µM | 8.03 ± 2.18 µM |  |  |  |  |  |  |
| COc1ccccc1-c1cc2nc(-c3ccccc3)cc(N3CCN(C(=O)c4ccco4)CC3)n2n1 [Compound 37] |  |  | 2.9 fold | 3 ± 0.57 µM | 1.03 ± 0.17 µM |  |  |  |
| Cc1coc(C)c1C(=O)N1CCN(c2cc(-c3ccco3)nc3cc(-c4ccccc4)nn23)CC1 [Compound 71] |  |  | 2.0 fold | 7.32 ± 2.52 µM | 3.68 ± 2.21 µM |  |  |  |
